Source: patent publication US20240271089A1, “METHODS TO GENERATE MACULAR, CENTRAL AND PERIPHERAL RETINAL PIGMENT EPITHELIAL CELLS” (THE U.S.A., as represented by the Secretary, Department of …, priority 2021, published 2024)
“Also recorded” adds a separate entry of the source.

Legend:
iPSC-RPE [1] = assay: iPSC-RPE cell area morphometry (REShAPE) after compound treatment; type: cell-based; settings: compared with macular (P1) and peripheral (P3) human RPE and the DMSO control
Procedure: FIG. 13. Testing different concentrations of AGN 193109 and endo-IWR-1 to reproduce macular (P1), central (P2) and peripheral (P3) cells. A range of concentrations of AGN 193109 and endo-IWR-1 were tested that could be used to reproduce macular, central and peripheral RPE populations (labeled P1, P2 and P3, respectively). Population 1 (P1, macular cells) can be reproduced with […] of AGN 193109. Population 3 (P3, peripheral) can be reproduced with 1 mM-4 mM of endo-IWR-1. A gradient of AGN 193109 and endo-IWR-1 could be used to replicate human RPE population 2 (P2, central)—central RPE cells. In one example, this can be reproduced with 25 nM-50 nM of AGN 193109 and 0.1 mM-0.5 mM of endo-IWR-1. Boxplots relative to DMSO, P1, P2 and P3 are plotted on the left side of the graph as a reference for cell size comparison. Five concentrations were tested for AGN 193109 and endo-IWR-1.
Screening of Compound Library and Imaging: 115 drugs targeting various developmental pathways or cytoskeletal stressors were selected to form a new developmental library of compounds. The drugs are either activators or inhibitors of various signaling pathways and target proteins at different levels of the signaling cascades. For each drug, an initial concentration was selected, and adjustments made to the concentration of each drug. The assays were performed on iPSC-derived committed RPE. For every drug, the concentration was lowered if toxicity was detected or increased if there was no evident effect on cell morphology in comparison to control. The list of compounds tested can be found in Table 1. The high-content screening was performed in 384-well plates (cat #6057300, Perkin Elmer) using a range of 3 different concentrations (3×, 1×, 0.3×). All drugs were reconstituted in dimethyl sulfoxide (DMSO, cat #D2650, Sigma) and 40 ul of each drug was aliquoted in triplicate in a 384-well master plate. Serial dilutions with RPEGM were then performed to obtain the final desired working concentrations and the final plates were stored at −80° C. […]

iPSC-RPE [2] = assay: Trans-epithelial electrical resistance (TER) of treated iPSC-RPE monolayer; type: cell-based, human; settings: for TER relative to cutoff / epithelial barrier integrity, in words: cutoff of 400 ohm*cm^2; for trans-epithelial electrical resistance (TER): fully mature iPSC-RPE, minimum threshold 400 Ωcm^2, DMSO around 1100 Ωcm^2
Procedure: (§1) Different techniques were used to study RPE morphologic features.
At this point the trans-epithelial electrical resistance (TER) was assayed to confirm the quality of differentiation and examine the effect of drugs on tight junction integrity. The minimum threshold of 400 Ωcm^2 for epithelial resistance per unit area is used to determine good batches of differentiation.
Trans-epithelial electrical resistance (TER) is a measure of the tightness of the monolayer. The tighter the monolayer, the healthier are the cells in the monolayer. A cutoff of 400 ohm*cm^2 was used to exclude cells with low TER. […] The range specifies 90% of the data.

iPSC-RPE [3] = assay: Scanning electron microscopy of apical processes of treated iPSC-RPE; type: cell-based, human; settings: for type of apical processes enriched: SEM, DMSO control shows both petal and finger-like types
Procedure: FIG. 11. Defining petal (undulated) and finger-like apical processes. The transversal section of apical processes was measured to precisely define their shape. Petal-like apical processes, obtained by treating RPE cells with AGN 193109, have an average transversal length of 1.68 μm (length min 0.5, max 4 μm) and width of 0.20 μm (width min 0.1, max 1 μm). The petal-like apical processes are also wavy along their length. The width of the undulation ranges from 0.2 to 2 μm. Finger-like apical processes, obtained by treating RPE cells with endo-IWR-1, are cylindrical and have the same average transversal length and width of 0.23 μm (min 0.1, max 1 microns). An example of how measurements of the apical processes was done is shown for each type of apical processed.
as §1
(§2) Finally, transmission electron microscopy (TEM) was used to detect fine morphological alterations, whereas scanning electron microscopy (SEM) was essential to study modifications in apical processes structures. […] In DMSO-treated iPSC-RPE we found both types of apical processes, petal and finger-like.

iPSC-RPE [4] = assay: Pigmentation (brightfield), gross (H&E) and fine (TEM) morphology of treated iPSC-RPE; type: cell-based, human; settings: for gross cell morphology: H&E staining; for gross cell morphology / pigmentation levels / fine intracellular structure: AGN 193109 0.2 μM, endo-IWR-1 4 uM; for pigmentation levels: brightfield imaging, compared with DMSO; for fine intracellular structure: transmission electron microscopy; for effect on iPSC-RPE health / healthy RPE phenotype: verified by TER, brightfield, H&E and TEM
From the text: as §1
Brightfield imaging was used to determine RPE pigmentation defects, while hematoxylin and eosin (H&E) staining was valuable to inspect gross morphologic alterations of the monolayer. A section of transwell membrane was cut and mounted on a glass slide for brightfield imaging. Pigmentation levels were preserved after ENDO-1-IWR and AGN 193109 treatments as compared to DMSO-treated iPSC-RPE.
as §2
AGN 193109 was used at 0.2.μM and endo-IWR-1 at 4 uM. Both agents were dissolved in DMSO, so that the final concentration of DMSO was not more than 0.1%. The final concentration of DMSO control was 0.1%. The compounds were added in RPE maturation medium until cells were mature. Gross cell morphology was also analyzed (FIGS. 15B, 15E, and 15F, left image) to detect possible abnormalities. Fine intracellular structures were examined for alterations with transmission electron microscopy (TEM, FIGS. 15B, 15E, and 15F, right image).

iPSC-RPE [5] = assay: Acid phosphatase activity in lysates of treated RPE cells (p-nitrophenyl phosphate); type: cell-based, human; settings: compared with DMSO- or endo-IWR-1-treated cells
Procedure: Acid phosphatase has higher expression in the macula (Boulton et al., The British Journal of Ophthalmology 78 (2), 125-9, doi: 10.1136/bjo.78.2.125 (1994)). This enzyme has an important role in photoreceptor outer segment digestion. The acid phosphatase activity was determined in cells treated with DMSO, AGN 193109 or endo-IWR-1. For these studies, RPE cells were lysed in distilled water to extract the enzyme. The lysates were then incubated with p-nitrophenyl phosphate, a phosphatase substrate that turns yellow when dephosphorylated by acid phosphatase. The color of the solution was measured with a spectrophotometer to estimate the enzyme activity.

iPSC-RPE cells = assay: Phagocytosis test with labelled bovine outer segments, flow cytometry; type: cell-based, human; settings: purified bovine outer segments, 4 hours, One-way ANOVA showed no difference
Procedure: iPSC-RPE cells were provided purified bovine outer segment (mostly rod photoreceptors) to phagocytose. The outer segments were labelled with a dye that fluoresces when the outer segments are phagocytosed. RPE cells were incubated for 4 hours with outer segments and then analyzed with flow cytometry to measure outer segment ingestion, or put back in the incubator for 20 hours before performing flow cytometry to measure outer segment digestion.

pigmentation levels (iPSC-RPE [4]; listed as ENDO-1-IWR)	pigmentation levels (iPSC-RPE [4]; listed as Endo-IWR-1)	SMILES	human RPE population whose cell size is reproduced by treated iPSC-RPE (iPSC-RPE [1])	TER relative to cutoff / epithelial barrier integrity, in words (iPSC-RPE [2])	trans-epithelial electrical resistance (TER) (iPSC-RPE [2])	type of apical processes enriched (iPSC-RPE [3])	average transversal width of apical processes (iPSC-RPE [3]; transversal section, FIG. 11) [μm]	gross cell morphology (iPSC-RPE [4])	pigmentation levels (iPSC-RPE [4])	fine intracellular structure (iPSC-RPE [4])	effect on iPSC-RPE health / healthy RPE phenotype (iPSC-RPE [4])	acid phosphatase activity (iPSC-RPE [5])	human RPE population whose cell size is reproduced by treated iPSC-RPE (iPSC-RPE [1]; listed as ENDO-1-IWR)	type of apical processes enriched (iPSC-RPE [3]; listed as ENDO-1-IWR)	average transversal length of apical processes (iPSC-RPE [3]; transversal section, FIG. 11) [μm]	gross cell morphology (iPSC-RPE [4]; listed as ENDO-1-IWR)	fine intracellular structure (iPSC-RPE [4]; listed as ENDO-1-IWR)	effect on iPSC-RPE health / healthy RPE phenotype (iPSC-RPE [4]; listed as ENDO-1-IWR)	outer segment ingestion (iPSC-RPE cells)
		Cc1ccc(C2=CCC(C)(C)c3ccc(C#Cc4ccc(C(=O)O)cc4)cc32)cc1 [AGN 193109, 4-[2-[5,6-Dihydro-5,5-dimethyl-8-(4-methylphenyl)-2-naphthalenyl]ethynyl]-benzoic acid]	comparable to the dimension of macular RPE population (P1)	well above the threshold; also recorded: well above this threshold	~1600 Ωcm^2	enriched RPE cells with petal-like apical processes (with undulation)	0.20	no gross morphological alterations were detected; also recorded: nor did they affect gross or fine cell morphology	preserved; also recorded: did not alter pigmentation levels	no fine intracellular structure defects were identified; also recorded: nor did they affect gross or fine cell morphology	not disruptive of iPSC-RPE health; also recorded: did not affect the healthy RPE phenotype	higher acid phosphatase activity							
preserved	did not alter pigmentation levels	O=C(Nc1cccc2cccnc12)c1ccc(N2C(=O)C3C4C=CC(C4)C3C2=O)cc1 (stereo not drawn) [endo-IWR-1, 4-(1,3,3a,4,7,7a-Hexahydro-1,3-dioxo-4,7-methano-2H-isoindol-2-yl)-N-8-quinolinyl-Benzamide]	peripheral	well above the threshold; also recorded: well above this threshold	~1200 Ωcm^2	enriched cells with finger-like apical processes	0.23	nor did they affect gross or fine cell morphology	did not alter pigmentation levels	nor did they affect gross or fine cell morphology			comparable to cells of peripheral RPE population P3	all RPE cells were enriched uniquely by finger-like apical processes	0.23	no gross morphological alterations were detected	no fine intracellular structure defects were identified	not disruptive of iPSC-RPE health; also recorded: did not affect the healthy RPE phenotype	ingest (peripheral cells) more outer segments
